Paper PMC6843404, “Conferring the Metabolic Self-Sufficiency of the CAM Plasmid of Pseudomonas putida ATCC 17453: The Key Role of Putidaredoxin Reductase” (Microorganisms, 2019)

Experiments:
[1] = target: T1, Fred (Pseudomonas putida, UniProt M4YFG7); assay: spectrophotometric NADH oxidation at […] nm; type: biochemical; details: anaerobic
T1 construct: native, highly purified, chromosome-coded, 36 kDa homodimer
T1 sequence (M4YFG7 2-170): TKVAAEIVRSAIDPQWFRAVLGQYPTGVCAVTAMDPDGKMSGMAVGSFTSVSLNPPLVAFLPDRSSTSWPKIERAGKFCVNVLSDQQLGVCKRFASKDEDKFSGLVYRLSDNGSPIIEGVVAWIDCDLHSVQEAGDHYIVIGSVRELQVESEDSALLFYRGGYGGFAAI

[2] = target: T2, PdR (Pseudomonas putida, UniProt P16640); assay: spectrophotometric NADH oxidation at […] nm; type: biochemical; details: anaerobic
T2 construct: gene camA
T2 sequence (P16640 1-422): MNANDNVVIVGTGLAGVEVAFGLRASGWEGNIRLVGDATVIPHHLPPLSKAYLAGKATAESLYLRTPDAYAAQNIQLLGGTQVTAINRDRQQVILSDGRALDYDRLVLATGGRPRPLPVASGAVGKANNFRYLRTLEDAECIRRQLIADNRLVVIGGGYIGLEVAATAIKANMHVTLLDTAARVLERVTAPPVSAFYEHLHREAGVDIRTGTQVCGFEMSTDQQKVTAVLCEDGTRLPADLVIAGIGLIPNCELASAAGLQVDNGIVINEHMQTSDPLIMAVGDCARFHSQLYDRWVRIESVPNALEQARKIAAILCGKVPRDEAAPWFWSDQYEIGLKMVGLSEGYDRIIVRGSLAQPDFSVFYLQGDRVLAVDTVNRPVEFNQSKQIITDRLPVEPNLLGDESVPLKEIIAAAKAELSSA

NC(=O)C1=CN([C@@H]2O[C@H](COP(=O)(O)OP(=O)(O)OC[C@H]3O[C@@H](n4cnc5c(N)ncnc54)[C@H](O)[C@@H]3O)[C@@H](O)[C@H]2O)C=CC1 [NADH]
spectrophotometric NADH oxidation at 340 nm ([1]; FMN as co-substrate): measuring the initial rate of enzyme-catalysed reduction of FMN by NADH | spectrophotometric NADH oxidation at 340 nm ([2]; FMN as co-substrate): measuring the initial rate of enzyme-catalysed reduction of FMN by NADH

Cc1cc2nc3c(=O)[nH]c(=O)nc-3n(C[C@H](O)[C@H](O)[C@H](O)COP(=O)(O)O)c2cc1C [FMN]
spectrophotometric NADH oxidation at 340 nm ([1]; NADH as co-substrate): measuring the initial rate of enzyme-catalysed reduction of FMN by NADH | spectrophotometric NADH oxidation at 340 nm ([2]; NADH as co-substrate): measuring the initial rate of enzyme-catalysed reduction of FMN by NADH
